These results are taken from US20250066735A1, “PREPARATION METHOD OF MESENCHYMAL STEM CELL (MSC) AND APPLICATION THEREOF IN KNEE PRODUCT” (GUANGDONG CELL BIOTECHNOLOGY CO. LTD, priority 2024, published 2025).

The subject of this experiment is human bone marrow-derived MSCs. Kind of experiment: Trypan blue survival rate of MSCs pre-cultivated with additive medium, after H2O2 challenge. The note with it: for Cell survival rate-improving effect (in words): compared among additive compositions, H2O2 challenge; for Cell survival rate: third-generation MSCs cultivated with medium additive, then low-sugar DMEM with 100 mM H2O2 for 1 h, Trypan blue. The format is cell-based. The procedure: (1) Isolation of bone marrow-derived MSCs from a bone marrow: 20 mL to 40 mL of a human bone marrow was extracted and added to a sterile glass bottle with 3,000 U heparin, and the human bone marrow and the heparin were fully mixed for anticoagulation. Normal saline was added at the same amount as the human bone marrow to the sterile glass bottle, and mixing was conducted thoroughly to obtain diluted human bone marrow. The diluted human bone marrow was added slowly to a Ficoll liquid level with 1 part by volume of a lymphocyte separation solution (Ficoll separation solution) per 2 parts by volume of the diluted human bone marrow to obtain a mixed system. The mixed system was centrifuged at 2,000 r/min and 20° C. in a horizontal centrifuge for 25 min, and bone marrow-derived MSCs were collected from an interface, washed with normal saline 2 to 3 times, suspended with an appropriate amount of a culture medium, and counted.
(2) Primary cultivation of the bone marrow-derived MSCs: The bone marrow-derived MSCs obtained in the step (1) were inoculated at a density of 0.3×10^6/mL in a basal medium, and the primary cultivation was conducted. The basal medium is Dulbecco's Modified Eagle Medium (DMEM, GIBCO company, America). During the primary cultivation, the medium was changed every 2 d to remove non-adherent cells and continuously purify the human bone marrow-derived MSCs. When a cell density reached 80%, the sub-cultivation was conducted. For an experimental group, an additive composition of NOG and quercetin was added to the basal medium to prepare an experimental medium.
The sub-cultivation was conducted until third-generation human bone marrow-derived MSCs were obtained. The third-generation human bone marrow-derived MSCs were further cultivated with the experimental medium for cell transplantation.
(3) A survival rate of the human bone marrow-derived MSCs was detected with Trypan blue. The human bone marrow-derived MSCs obtained in the step (2) (cells cultivated without NOG and quercetin were adopted as a control group) were transferred to a low-sugar DMEM including 100 mM hydrogen peroxide (H2O2), cultivated for 1 h, stained with Trypan blue, and observed under a microscope to count a cell survival rate.

For `O=C(O)CNC(=O)C(=O)O` [compound 2, N-oxalylglycine], the “Cell survival rate-improving effect (in words)” value was “inferior cell survival rate-improving effect” and the Cell survival rate is on record as 52.3 ± 0.8%.
The like results for `O=c1c(O)c(-c2ccc(O)c(O)c2)oc2cc(O)cc(O)c12` [compound 1, quercetin] were, in that order, “inferior cell survival rate-improving effect” and 50.2 ± 0.7%.
